The record followed here is ChEMBL document CHEMBL1141154, “Indolin-2-ones with high in vivo efficacy in a model for multiple sclerosis” (J Med Chem, 2005).

Structures are written as SMILES. pIC50: −log10 of the molar value. Where only a bound is given, the exact number is not on record here.

The subject of experiment [1] is PBMC. In words: In vitro inhibitory concentration on the production of pro-inflammatory cytokine IL-2 in PBMC (Peripheral blood mononuclear cells) determined by IL-2 PBMC assay. In kind it is functional, cell-based. Conditions: Homo sapiens.
The subject of experiment [2] is Mus musculus. In words: In vivo percent inhibition of multiple sclerosis (MS) by the compound upon oral administration at a dose of 50 mg/kg on EAE model (mice immunized for EAE induction and assessed clinically for 21 days). Format: functional. The note with it: 504 h.
Experiment [3] deals with Mus musculus. In words: In vivo percent inhibition of multiple sclerosis (MS) by the compound upon intraperitoneal administration at a dose of 50 mg/kg on EAE model (mice immunized for EAE induction and assessed clinically for 21 days). In kind it is functional. Conditions: ip, 504 h.
Experiment [4] addresses Vascular endothelial growth factor receptor 2 (Homo sapiens, UniProt P35968). As to the kind of experiment: In vitro inhibition of KDR.
Experiment [5] has as its system Mus musculus. As to the kind of experiment: In vivo percent inhibition of multiple sclerosis (MS) by the compound upon intraperitoneal administration at a dose of 50 mg/kg on EAE model (mice immunized for EAE induction and assessed clinically for 21 days); non significant effect. Format: functional. The note with it: ip, 504 h.

Sequence of Vascular endothelial growth factor receptor 2 (P35968 whole entry): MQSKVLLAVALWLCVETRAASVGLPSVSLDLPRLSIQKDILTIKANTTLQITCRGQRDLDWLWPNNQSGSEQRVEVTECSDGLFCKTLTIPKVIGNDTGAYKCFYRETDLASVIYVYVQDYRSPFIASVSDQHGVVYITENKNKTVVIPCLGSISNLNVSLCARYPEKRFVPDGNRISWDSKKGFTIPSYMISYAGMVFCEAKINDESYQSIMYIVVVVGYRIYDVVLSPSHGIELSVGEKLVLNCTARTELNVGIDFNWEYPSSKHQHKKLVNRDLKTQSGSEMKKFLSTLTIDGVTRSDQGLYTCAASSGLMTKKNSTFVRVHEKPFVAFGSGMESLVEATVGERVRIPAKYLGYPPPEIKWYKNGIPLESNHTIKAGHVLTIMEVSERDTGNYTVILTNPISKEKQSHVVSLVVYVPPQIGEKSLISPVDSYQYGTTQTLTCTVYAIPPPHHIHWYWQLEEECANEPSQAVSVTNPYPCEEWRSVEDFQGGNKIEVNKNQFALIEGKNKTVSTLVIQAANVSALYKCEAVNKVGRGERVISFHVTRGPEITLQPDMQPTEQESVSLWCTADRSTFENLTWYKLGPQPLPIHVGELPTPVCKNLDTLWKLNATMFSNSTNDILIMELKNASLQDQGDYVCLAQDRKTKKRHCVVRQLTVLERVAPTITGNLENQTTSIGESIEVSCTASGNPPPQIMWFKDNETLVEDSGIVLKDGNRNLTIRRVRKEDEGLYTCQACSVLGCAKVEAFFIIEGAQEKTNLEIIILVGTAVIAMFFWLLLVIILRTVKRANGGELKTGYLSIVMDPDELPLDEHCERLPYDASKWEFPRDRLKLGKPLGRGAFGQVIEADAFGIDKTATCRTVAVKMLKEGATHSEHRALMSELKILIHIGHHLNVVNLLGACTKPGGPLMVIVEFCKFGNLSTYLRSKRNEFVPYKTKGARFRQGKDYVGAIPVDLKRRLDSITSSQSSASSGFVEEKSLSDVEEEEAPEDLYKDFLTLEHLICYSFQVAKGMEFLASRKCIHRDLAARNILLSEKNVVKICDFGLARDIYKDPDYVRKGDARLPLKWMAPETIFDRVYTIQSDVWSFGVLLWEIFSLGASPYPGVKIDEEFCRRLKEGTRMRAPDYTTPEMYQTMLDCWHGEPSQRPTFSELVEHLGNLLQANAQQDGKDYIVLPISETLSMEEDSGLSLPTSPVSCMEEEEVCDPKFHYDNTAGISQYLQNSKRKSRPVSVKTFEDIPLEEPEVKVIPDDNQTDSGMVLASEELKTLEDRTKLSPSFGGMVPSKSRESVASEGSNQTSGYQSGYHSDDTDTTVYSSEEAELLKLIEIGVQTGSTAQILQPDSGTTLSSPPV

In the case of `O=C1Nc2ccccc2/C1=C/c1c[nH]c2ccccc12`, the pIC50 (as a rule, −log10 of the IC50, conventionally taken in molar units) in experiment [1] is 8.10. Further, the figures for the inhibition in vivo at 50 mg/kg in experiment [2] and in experiment [3] were 32% and 84%, respectively.

Regarding `Cc1[nH]c(/C=C2\C(=O)Nc3ccccc32)c(C)c1Br`, the figures for the pIC50 in experiment [1] and in experiment [4] were 8.52 and 6.49, respectively. Moreover, the inhibition in vivo (commonly the drop in the measured response relative to a control, in per cent) at 50 mg/kg in experiment [3] is -78%.

With `Cc1[nH]c(/C=C2\C(=O)Nc3ccccc32)c(C)c1Cl`, the values for the pIC50 in experiment [1] and in experiment [4] were 8.40 and 6.00, respectively. Besides, in experiment [3], the inhibition in vivo at 50 mg/kg is -96%.

Consider `Cc1cc(C)c(/C=C2\C(=O)N(O)c3ccccc32)[nH]1`, for which the negative logarithm of the IC50 (pIC50) in experiment [1] was 7.74; in experiment [4] it was 6.30. The inhibition in vivo at 50 mg/kg in experiment [3] was -67%.

In the case of `Cc1cc(C)c(/C=C2\C(=O)Nc3ccccc32)[nH]1` [SEMAXANIB], the inhibition in vivo at 50 mg/kg in experiment [3] is -98%.

With `Cc1cc(C)c(/C=C2\C(=O)N(CN3CCN(C)CC3)c3ccccc32)[nH]1`, in experiment [2], the inhibition in vivo at 50 mg/kg is -56%.

Take `Clc1ccc(Nc2nnc(Cc3ccncc3)c3ccccc23)cc1` [VATALANIB]: the negative logarithm of the IC50 (pIC50) in experiment [1] is < 6.00.

As for `O=C1Nc2ccccc2/C1=C/c1ccc[nH]1`, the inhibition in vivo at 50 mg/kg in experiment [5] is -9%.

In the case of `CCOC(=O)c1cc(C)c(/C=C2\C(=O)Nc3ccccc32)[nH]1`, the figures for the pIC50 in experiment [1] and in experiment [4] were 7.85 and 5.10, respectively. The inhibition in vivo at 50 mg/kg in experiment [3] was -44%.

For `CC(=O)ON1C(=O)/C(=C\c2[nH]c(C)cc2C)c2ccccc21`, the pIC50 in experiment [1] was 7.96; in experiment [4], 6.40. The inhibition in vivo at 50 mg/kg in experiment [3] was -48%.

On to `Cc1cc(C)c(/C=C2\C(=O)Nc3ccc(O)cc32)[nH]1`, for which the pIC50 in experiment [1] was 6.00; in experiment [4], 7.00. Also, the inhibition in vivo at 50 mg/kg in experiment [5] was -12%.

`Cc1cc(C(=O)O)[nH]c1/C=C1\C(=O)Nc2ccccc21`: the pIC50 was < 6.00 in experiment [1] and < 5.00 in experiment [4]. For the same compound, the inhibition in vivo at 50 mg/kg in experiment [5] is -23%.

In the case of `Cc1cc(C(=O)NCCO)[nH]c1/C=C1\C(=O)Nc2ccccc21`, the pIC50 in experiment [1] is 7.52; in experiment [4] it was < 5.00. Also, the inhibition in vivo at 50 mg/kg in experiment [3] was -41%.

Turning to `COc1ccc(OC)c(/C=C2/C(=O)Nc3ccccc32)c1`, the pIC50 in experiment [1] is 7.68. The inhibition in vivo at 50 mg/kg was -49% in experiment [2] and -90% in experiment [3].

As for `Cc1cc(CO)[nH]c1/C=C1\C(=O)Nc2ccccc21`, the pIC50 was 7.30 in experiment [1] and 6.49 in experiment [4]. For the same compound, the inhibition in vivo at 50 mg/kg in experiment [3] is -57%.
